Laboratory results as given in patent publication US20160346249A1 (priority 2012, published 2016).
Values joined by “and” are separate entries in the source; they are usually repeats but may differ in a detail not shown here. Equal values may be shown once.

Experiment: Single rising oral dose (10-150 mg IR) safety, tolerance and pharmacokinetics in healthy male volunteers
Format: in vivo, human
From the text: Fifty (50) healthy male adult volunteers, between the ages of 19 and 43 years (mean±SD: 28±6 years) were enrolled in the study and randomized to the […] different treatments. […] The subjects were divided into panels of 10 subjects/dose group. Seven subjects in each group received the test drug, while three received an identical-looking placebo. […] The five treatments are outlined below:
The subjects were admitted to the clinic the night before dose administration and fasted from approximately 10 hour before to 4 hour after ingestion of the study capsules. Treatments were administered with 240 mL of mineral water between 08:00 and 09:00 hours. […] The assay calibration range was 5 to 2,000 ng/mL.
The values of Cmax and Tmax were the observed value for each subject. The terminal elimination rate constant λz was derived from the log-linear disposition phase of the concentration-time curve using linear least-squares regression for which the program determined the appropriate number of terminal points to calculate λz. At least three terminal plasma concentrations were used for estimating λz. The t1/2 (HL_Lambda_z) was calculated as ln 2/λz. AUC0-t and AUMC0-t were determined using the linear trapezoidal rule for each increasing concentration and the log-trapezoidal rule for descending concentrations. The AUC values from the last quantifiable time point to infinity was calculated as Ct/λz. This value was added to AUC0-t to obtain AUC0-∞. […] Oral clearance was calculated as Dose/AUC0-∞. The 90% confidence intervals were calculated for all of the variables.
SAS, version 8.2, was used for the analysis.

[1] = 10 mg, individual subject, listed as DOV 21,947
[2] = 25 mg, individual subject, listed as DOV 21,947
[3] = 50 mg, individual subject, listed as DOV 21,947
[4] = 100 mg, individual subject, listed as DOV 21,947
[5] = 150 mg, individual subject, listed as DOV 21,947

Question: Which λ2 (10 mg, Geometric Mean) does the source give for `Clc1ccc([C@]23CNC[C@H]2C3)cc1Cl` [amitifadine, (+)-1-(3,4-dichlorophenyl)-3-azabicyclo[3.1.0]hexane] here?
Answer: 0.204 h⁻¹

Question: And the “AUC0-∞” value (10 mg, Maximum)?
Answer: 551 ng·h/mL

Question: What about the AUC(0-t) (10 mg, Maximum) of the same molecule?
Answer: 492 ng·h/mL

Question: What about the “MRT0-∞” value (10 mg, Maximum) of the same molecule?
Answer: 6.09 h

Question: What about the t1/2 (10 mg, Maximum) of the same molecule?
Answer: 3.90 h

Question: And the λ2 (10 mg, Maximum)?
Answer: 0.233 h⁻¹

Question: And the λz (10 mg, Mean (n = 7))?
Answer: 0.205 h⁻¹

Question: And the λ2 (10 mg, Median)?
Answer: 0.200 h⁻¹

Question: What about the “AUC0-∞” value (10 mg, Minimum) of the same molecule?
Answer: 257 ng·h/mL

Question: And the AUC(0-t) (10 mg, Minimum)?
Answer: 227 ng·h/mL

Question: And the “MRT0-∞” value (10 mg, Minimum)?
Answer: 4.72 h

Question: And the t1/2 (10 mg, Minimum)?
Answer: 2.98 h

Question: And the λ2 (10 mg, Minimum)?
Answer: 0.178 h⁻¹

Question: What about the “MRT0-∞” value [1] of the same molecule?
Answer: 5.47 h and 4.72 h and 6.09 h and 4.84 h

Question: And the t1/2 [1]?
Answer: 3.63 h and 3.90 h and 3.09 h and 2.98 h and 3.79 h and 3.08 h

Question: What about the λ2 [1] of the same molecule?
Answer: 0.200 hr^−1 and 0.191 hr^−1 and 0.178 hr^−1 and 0.225 hr^−1 (2×) and 0.233 hr^−1 and 0.183 hr^−1

Question: What about the λ2 (25 mg, Geometric Mean) of the same molecule?
Answer: 0.234 h⁻¹

Question: And the “AUC0-∞” value (25 mg, Maximum)?
Answer: 2350 ng·h/mL

Question: What about the AUC(0-t) (25 mg, Maximum) of the same molecule?
Answer: 2220 ng·h/mL

Question: And the “MRT0-∞” value (25 mg, Maximum)?
Answer: 6.46 h

Question: And the t1/2 (25 mg, Maximum)?
Answer: 5.25 h

Question: And the λ2 (25 mg, Maximum)?
Answer: 0.493 h⁻¹

Question: And the λz (25 mg, Mean (n = 7))?
Answer: 0.251 h⁻¹

Question: And the AUC(0-t) (25 mg, Mean (n = 7), listed as DOV 21,947)?
Answer: 1380 ng·h/mL

Question: What about the λ2 (25 mg, Median) of the same molecule?
Answer: 0.231 h⁻¹

Question: What about the “AUC0-∞” value (25 mg, Minimum) of the same molecule?
Answer: 1080 ng·h/mL

Question: What about the AUC(0-t) (25 mg, Minimum) of the same molecule?
Answer: 995 ng·h/mL

Question: What about the “MRT0-∞” value (25 mg, Minimum) of the same molecule?
Answer: 4.26 h

Question: And the t1/2 (25 mg, Minimum)?
Answer: 1.41 h

Question: And the λ2 (25 mg, Minimum)?
Answer: 0.132 h⁻¹

Question: And the “MRT0-∞” value [2]?
Answer: 4.26 h and 6.46 h and 4.98 h and 4.29 h and 4.39 h

Question: And the λ2 [2]?
Answer: 0.222 hr^−1 and 0.231 hr^−1 (2×) and 0.132 hr^−1 and 0.191 hr^−1 and 0.258 hr^−1 and 0.493 hr^−1

Question: What about the λ2 (50 mg, Geometric Mean) of the same molecule?
Answer: 0.190 h⁻¹

Question: What about the “AUC0-∞” value (50 mg, Maximum) of the same molecule?
Answer: 3270 ng·h/mL

Question: What about the AUC(0-t) (50 mg, Maximum) of the same molecule?
Answer: 3220 ng·h/mL

Question: And the “MRT0-∞” value (50 mg, Maximum)?
Answer: 5.66 h

Question: What about the t1/2 (50 mg, Maximum) of the same molecule?
Answer: 4.39 h

Question: And the λ2 (50 mg, Maximum)?
Answer: 0.245 h⁻¹

Question: And the λz (50 mg, Mean (n = 7))?
Answer: 0.192 h⁻¹

Question: And the λ2 (50 mg, Median)?
Answer: 0.191 h⁻¹

Question: What about the “AUC0-∞” value (50 mg, Minimum) of the same molecule?
Answer: 1690 ng·h/mL

Question: And the AUC(0-t) (50 mg, Minimum)?
Answer: 1530 ng·h/mL

Question: And the “MRT0-∞” value (50 mg, Minimum)?
Answer: 4.38 h

Question: What about the t1/2 (50 mg, Minimum) of the same molecule?
Answer: 2.62 h

Question: What about the λ2 (50 mg, Minimum) of the same molecule?
Answer: 0.158 h⁻¹

Question: What about the “MRT0-∞” value [3] of the same molecule?
Answer: 4.38 h and 5.43 h and 5.22 h and 5.60 h and 5.66 h

Question: What about the λ2 [3] of the same molecule?
Answer: 0.213 h⁻¹ and 0.245 h⁻¹ and 0.199 h⁻¹ and 0.158 h⁻¹ and 0.191 h⁻¹ and 0.167 h⁻¹ and 0.170 h⁻¹

Question: And the λ2 (100 mg, Geometric Mean)?
Answer: 0.167 h⁻¹

Question: What about the “AUC0-∞” value (100 mg, Maximum) of the same molecule?
Answer: 5960 ng·h/mL

Question: And the AUC(0-t) (100 mg, Maximum)?
Answer: 5900 ng·h/mL

Question: What about the “MRT0-∞” value (100 mg, Maximum) of the same molecule?
Answer: 7.03 h

Question: And the t1/2 (100 mg, Maximum)?
Answer: 4.35 h

Question: What about the λ2 (100 mg, Maximum) of the same molecule?
Answer: 0.177 h⁻¹

Question: What about the λz (100 mg, Mean (n = 7)) of the same molecule?
Answer: 0.167 h⁻¹

Question: And the λ2 (100 mg, Median)?
Answer: 0.164 h⁻¹

Question: And the “AUC0-∞” value (100 mg, Minimum)?
Answer: 4030 ng·h/mL

Question: And the AUC(0-t) (100 mg, Minimum)?
Answer: 3960 ng·h/mL

Question: What about the “MRT0-∞” value (100 mg, Minimum) of the same molecule?
Answer: 4.85 h

Question: And the t1/2 (100 mg, Minimum)?
Answer: 3.92 h

Question: What about the λ2 (100 mg, Minimum) of the same molecule?
Answer: 0.159 h⁻¹

Question: And the “MRT0-∞” value [4]?
Answer: 7.03 h and 5.71 h and 5.63 h and 4.85 h

Question: And the λ2 [4]?
Answer: 0.176 hr^−1 and 0.162 hr^−1 and 0.173 hr^−1 and 0.159 hr^−1 (2×) and 0.164 hr^−1 and 0.177 hr^−1

Question: What about the λ2 (150 mg, Geometric Mean) of the same molecule?
Answer: 0.191 h⁻¹

Question: What about the “AUC0-∞” value (150 mg, Maximum) of the same molecule?
Answer: 11100 ng·h/mL

Question: And the AUC(0-t) (150 mg, Maximum)?
Answer: 10900 ng·h/mL

Question: And the “MRT0-∞” value (150 mg, Maximum)?
Answer: 7.14 h

Question: And the t1/2 (150 mg, Maximum)?
Answer: 4.87 h

Question: And the λ2 (150 mg, Maximum)?
Answer: 0.288 h⁻¹

Question: What about the λz (150 mg, Mean (n = 7)) of the same molecule?
Answer: 0.195 h⁻¹

Question: What about the t1/2 (150 mg, Mean (n = 7), listed as DOV 21,947) of the same molecule?
Answer: 3.91 h

Question: What about the λ2 (150 mg, Median) of the same molecule?
Answer: 0.189 h⁻¹

Question: And the “AUC0-∞” value (150 mg, Minimum)?
Answer: 6590 ng·h/mL

Question: And the AUC(0-t) (150 mg, Minimum)?
Answer: 6390 ng·h/mL

Question: What about the “MRT0-∞” value (150 mg, Minimum) of the same molecule?
Answer: 4.66 h

Question: What about the t1/2 (150 mg, Minimum) of the same molecule?
Answer: 2.41 h

Question: And the λ2 (150 mg, Minimum)?
Answer: 0.142 h⁻¹

Question: And the “MRT0-∞” value [5]?
Answer: 7.03 h and 6.70 h and 4.66 h and 7.14 h

Question: What about the λ2 [5] of the same molecule?
Answer: 0.177 h⁻¹ and 0.142 h⁻¹ and 0.189 h⁻¹ and 0.288 h⁻¹ and 0.200 h⁻¹ and 0.159 h⁻¹ and 0.209 h⁻¹

Question: And the “variability of Cmax and AUC” value (all doses)?
Answer: ≤ 30%

Question: What about the MRT inf (human, plasma, oral, 10 mg, individual subject, read-out: MRT0-∞) of the same molecule?
Answer: 5.36 h
